In series [1] the test system is histone H3 hyperacetylation in HeLa cells. Put plainly: Cellular histone H3 hyperacetylation assay. In kind it is cell-based. Particulars: Homo sapiens, 24 h incubation. An excerpt: To assess the cellular efficacy of a histone deacetylase inhibitor in vitro, an assay is set up in black clear-bottom 96-well plates and optimized for use on the Cellomics “ArrayScan II” platform for a quantitative calculation of histone acetylation. The protocol uses a polyclonal rabbit antibody, specifically binding to acetylated lysine 23 or, alternatively, acetylated lysine 9+14 of human histone H3 on fixed cells with an Alexa Fluor 488 labeled goat anti rabbit-IgG used for counterstaining (modified from Braunger et al. AACR annual conference 2003, Abstract 4556).
5×10^3 HeLa cervical carcinoma cells/well (ATCC CCL-2) in 200 μl Dulbecco's modified Eagle's medium (DMEM) containing 10% fetal calf serum are seeded at day 1 in Packard view plates and incubated for 24 h under standard cell culture conditions. On day 2, 1 μl test compound (200× final concentration) is added and incubation continued for further 24 h. On day 3, the culture medium is discarded and attached cells fixed for 15 min at room temperature by addition of 100 μl fixation buffer (3.7% v:v formaldehyde in phosphate buffered saline/PBS). After discarding the fixation buffer and one wash with blocking solution (1% BSA, 0.3% Tween 20 in PBS), cells are permeabilized at room temperature by addition of 100 μl/well permeabilization buffer (30.8 mM NaCl, 0.54 mM Na2HPO4, 0.31 mM KH2PO4, 0.1% v:v Triton X-100) for 15 min at room temperature. After discarding the permeabilization buffer and washing twice with 100 μl/well blocking solution at room temperature, the 1st antibody (anti-K23 histone H3 antibody, Cell Signaling No. 9674 or, alternatively, anti-K9+14 histone H3 antibody, Calbiochem No. 382158) in blocking solution (50 μl/well) is added. After incubation for 1 h at room temperature, the wells are washed twice at room temperature with 100 μl/well blocking solution before addition of the 2nd antibody (goat-anti-rabbit Alexa Fluor 488; MoBiTec No. A-11008) in blocking solution (50 μl/well). After further incubation for 1 h at room temperature, wells are washed twice with 100 μl/well blocking solution at room temperature. Finally, 100 μl/well PBS are added and image analysis performed on the Cellomics “ArrayScan II” platform. For EC50 determination, the percentage of positive cells showing nuclear fluorescence is determined and EC50 calculation done from concentration-effect curves by means of non-linear regression. For calibration, a positive (reference HDAC inhibitors like SAHA or LBH589) and negative control is included.

The test system of series [2] is HeLa cervical carcinoma cell line. Put plainly: Cellular cytotoxicity assay (Alamar Blue), HeLa. Particulars: Homo sapiens, 48 or 72 hours, read-out: IC50, anti-proliferative/cytotoxic activity. In kind it is cell-based. The method, then: (§1) The anti-proliferative activity of the histone deacetylase inhibitory compounds as described herein, Is evaluated with the HeLa cervical carcinoma cell line (ATCC CCL2) and A549 non-small cell lung cancer cell line (ATCC CCL185) using the Alamar Blue (Resazurin) cell viability assay (O'Brien et al. Eur J Biochem 267, 5421-5426, 2000). Resazurin is reduced to the fluorescent resorufin by cellular dehydrogenase activity, correlating with viable, proliferating cells. Test compounds are dissolved as 20 mM solutions in dimethylsulfoxide (DMSO) and subsequently diluted in semi-logarithmic steps. HeLa or A549 cells are seeded into 96 well flat bottom plates at a density of 1000 and 2000 cells per well, respectively, in a volume of 200 μl per well. 24 hours after seeding 1 μl each of the compound dilutions are added into each well of the 96 Well plate. Each compound dilution is tested as quadruplicates.
(§2) Wells containing untreated control cells are filled with 200 μl DMEM medium containing 0.5% v:v DMSO. The cells are then incubated with the substances for 48 or 72 hours at 37° C. in a humidified atmosphere containing 5% carbon dioxide. To determine the viability of the cells, 20 μl of an Resazurin solution (Sigma; 90 mg/I) were added. After 4 hours incubation at 37° C. the fluorescence is measured at an extinction of 544 nm and an emission of 590 nm. For the calculation of the cell viability the emission value from untreated cells is set as 100% viability and the emission rates of treated cells are set in relation to the values of untreated cells. Viabilities are expressed as % values. The corresponding IC50 values of the compounds for cytotoxic activity are determined from the concentration-effect curves by means of non-linear regression.

Series [3] deals with A549 NSCLC cell line. Put plainly: Cellular cytotoxicity assay (Alamar Blue), A549. The class given is cell-based. Particulars: Homo sapiens, 48 or 72 hours, read-out: IC50, anti-proliferative/cytotoxic activity. Here is the method: as §1, §2
Series [4] deals with A549 cells. In words: Apoptosis induction (cell death detection ELISA). The class given is cell-based, human. Particulars: 10 μM, 48 hours. The method, then:
The induction of apoptosis is measured by using the cell death detection ELISA (Art. No. 1774425, Roche Biochemicals, Mannheim, Germany). A549 NSCLC cells are seeded into 96 well flat bottom plates at a density of 3×10 E3 cells/well in a total volume of 200 μl/well. 24 hours after seeding, 1 μl each of the compound dilutions in DMEM are added in a total volume of 200 μl into each well (final volume 200 μl/well). Each compound dilution is tested at least as triplicates. Wells containing untreated control cells are filled with 200 μl DMEM containing 0.5 vol % DMSO. The cells are incubated with test compound for 48 hours at 37° C. in a humidified atmosphere containing 5% carbon dioxide. As a positive control for the induction of apoptosis, cells are treated with 50 μM Cisplatin (Gry Pharmaceuticals, Kirchzarten, Germany). Medium is then removed and the cells lysed in 200 μl lysis buffer. After centrifugation as described by the manufacturer, 10 μl of cell lysate is processed as described in the protocol. The degree of apoptosis is calculated as follows: The absorbance at 405 nm obtained with lysates from cells treated with 50 μM cisplatin is set as 100 cpu (cisplatin units), while an absorbance at 405 nm of 0.0 is set as 0.0 cpu. The degree of apoptosis is expressed as cpu in relation to the value of 100 cpu reached with the lysates obtained from cells treated with 50 μM cisplatin.

Structures can show the parent of a compound that is named as a salt.

Regarding `O=C(/C=C/c1ccn(S(=O)(=O)c2ccc3ncsc3c2)c1)NO` [Example 10, (E)-3-[1-(Benzothiazole-6-sulfonyl)-1H-pyrrol-3-yl]-N-hydroxy-acrylamide], the EC50 in series [1] lay within 190 to 10000 nM. The IC50 in series [2] was in the range of 230 to 4200 nM; in series [3], 313 to 6200 nM.
As to `Cc1nc(C)c(S(=O)(=O)n2ccc(C=CC(=O)NO)c2)s1` (as salt: HCl) [Example 11, (E)-3-[1-(2, Dimethyl-thiazole-5-sulfonyl)-1H-pyrrol-3-yl]-N-hydroxy-acrylamide], the melting point fell in the range of 181 to 182 °C.
In turn, `O=C(/C=C/c1ccn(S(=O)(=O)c2cc3ccccc3s2)c1)NO` [Example 9, (E)-3-[1-(Benzo[b]thiophene-2-sulfonyl)-1H-pyrrol-3-yl]-N-hydroxy-acrylamide] registered an EC50 in series [1] of 190 to 10000 nM. Besides, the values for the IC50 in series [2] and in series [3] were 230 to 4200 nM and 313 to 6200 nM, respectively.
In turn, `O=C(/C=C/c1ccn(S(=O)(=O)c2cccnc2)c1)NO` [Example 3, (E)-N-Hydroxy-3-[1-(pyridine-3-sulfonyl)-1H-pyrrol-3-yl]-acrylamide] had a melting point of 161.4 to 176.4 °C. The IC50 in series [2] lay within 230 to 4200 nM. The IC50 in series [3] was in the range of 313 to 6200 nM.
The compound `Nc1ccccc1NC(=O)/C=C/c1ccn(S(=O)(=O)c2ccc3ccccc3c2)c1` [Example 2, (E)-N-(2-Amino-phenyl)-3-[1-(naphthalene-2-sulfonyl)-1H-pyrrol-3-yl]-acrylamide] yielded an EC50 in series [1] of 190 to 10000 nM. Besides, the IC50 fell in the range of 230 to 4200 nM in series [2] and 313 to 6200 nM in series [3]. Besides, in series [4], the “Apoptosis induction (cisplatin units; 50 μM cisplatin = 100 cpu)” value was determined as 46 cpu.
As for `O=C(/C=C/c1ccn(S(=O)(=O)c2ccc3ccccc3c2)c1)NO` [Example 1, (E)-N-Hydroxy-3-[1-(naphthalene-2-sulfonyl)-1H-pyrrol-3-yl]-acrylamide], the EC50 in series [1] was 190 to 10000 nM. Besides, the figures for the IC50 in series [2] and in series [3] were 230 to 4200 nM and 313 to 6200 nM, respectively. Further, the “Apoptosis induction (cisplatin units; 50 μM cisplatin = 100 cpu)” value in series [4] worked out at 310 cpu.
Take `Cc1nc(C)c(S(=O)(=O)n2ccc(C=CC(=O)NO)c2)s1` [Example 11, (E)-3-[1-(2, Dimethyl-thiazole-5-sulfonyl)-1H-pyrrol-3-yl]-N-hydroxy-acrylamide]: the IC50 was in the range of 230 to 4200 nM in series [2] and 313 to 6200 nM in series [3].
In the case of `O=C(/C=C/c1ccn(S(=O)(=O)c2ccc(N3CCOCC3)nc2)c1)NO` [Example 4, (E)-N-Hydroxy-3-[1-(6-morpholin-4-yl-pyridine-3-sulfonyl)-1H-pyrrol-3-yl]-acrylamide], the concentration giving a half-maximal response (EC50) in series [1] is 190 to 10000 nM. Also, the IC50 in series [2] was in the range of 230 to 4200 nM; in series [3], 313 to 6200 nM.
The compound `Cc1nc(S(=O)(=O)n2ccc(/C=C/C(=O)NO)c2)cn1C` [Example 12, (E)-3-[1-(1,2-Dimethyl-1H-imidazole-4-sulfonyl)-1H-pyrrol-3-yl]-N-hydroxy-acrylamide] registered a melting point of 190 to 194 °C.
Regarding `Cn1cc(S(=O)(=O)n2ccc(/C=C/C(=O)NO)c2)cn1` [Example 8, (E)-N-Hydroxy-3-[1-(1-methyl-1H-pyrazole-4-sulfonyl)-1H-pyrrol-3-yl]-acrylamide], the IC50 in series [2] is 230 to 4200 nM; in series [3], 313 to 6200 nM.
